Read-outs that look alike come from different tables or passages of the source.
Key:
[1] = test system: GM2 activator protein (GM2AP) in urine
Description: (§1) In-house bred, female Wistar rats weighing 190-230 g were divided in the following experimental groups (FIG. 1): (i) Control: rats treated i.p. during 7-13 days with saline (0.9% NaCl), once daily.
(§2) For the whole experiment, rats were individually allocated in metabolic cages under temperature and humidity controlled conditions. Animals were allowed to eat regular chow and drink water ad libitum. At different times, 24-hour urine and blood samples were obtained. Urine was collected in graduated vessels supplemented with 100 μL of 0.1% sodium azide and 1 ml oil to prevent contamination and evaporation, respectively. Subsequently, urine was cleared by centrifugation at 1,175×g, aliquoted and stored at −80° C. Blood was drawn from a small incision in the tail and collected in heparinised capillaries. These were immediately centrifuged at 12,000×g and plasma was stored at −80° C. At the end of the experiment, rats were anesthetized with sodium pentobarbital (10 mg/kg). The kidneys were perfused with heparinised saline through the abdominal aorta, and they were immediately dissected. The right kidney and one half of the left one were swiftly frozen by immersion in liquid nitrogen, and stored at −80° C. Eventually, they were used for Western blot studies. For such a purpose, frozen tissues were homogenized under freezing conditions by hammer-smashing, until a fine powder was obtained. The powder was also kept at −80° C. The second half of the left kidney was immersed in 3.7% paraformaldehyde at 4° C. during 14-16 hours. After it, tissue samples were processed for immunohistochemical studies.
Protein extracts were obtained from 100 mg tissue homogenate powder, prepared by homogenizing the kidneys with a tissue mixer (Ultra-Turrax T8, IKA®-Werwe) at 4° C. in homogenization buffer (140 mM NaCl, 20 mM Tris-HCl pH=7.5, 0.5 Methylenediaminetetraacetic acid—EDTA-, 10% glycerol, 1% Igepal CA-630, 1 μg/mL aprotinin, 1 μg/mL leupeptin, 1 μg/mL pepstatin A, 1 mM phenylmethylsulphonyl fluoride—PMSF-). Tissue homogenates were centrifuged at 22,000 g during 15 minutes at 4° C. Supernatants were collected. Protein concentration was measured with a commercial kit (BioRad) based on the Lowry method. 50 μg total protein from tissue extracts or 20 μL cleared urine from each sample were separated by electrophoresis in 10-15% acrylamide gels (Mini Protean II system, BioRad). Immediately, proteins were electrically transferred to an Immobilon-P membrane (Millipore). […]
Protein concentration was determined by the Bradford method.

[2] = test system: Wistar rats; test: Survival rate and body weight evolution of rats treated with gentamicin; format: in vivo; settings: gentamicin 150 mg/kg/day (G-150), 7 days
[3] = test system: Wistar rats; test: Time course of markers of nephrotoxicity under gentamicin 150 mg/kg/day
Description: as §1, §2
(§3) Plasma and urine concentration of creatinine and blood urea nitrogen (BUN) were determined by an automated analysis system (Reflotron®, Roche Diagnostics, Barcelona, Spain) and commercial reactive strips (Roche Diagnostics, Barcelona, Spain), using 32 μL of plasma and urine. This method has a lower detection limit of 0.5 mg/dL for creatinine. Samples reading under 0.5 mg/dL creatinine were head-to-head re-assayed by the colorimetric method of Jaffe (Hervey, 1953. Nature, 171: 1125).
(§4) Urine protein concentration (mg/mL) was measured by the Bradford method (39). Daily protein excretion (mg/day) was obtained by multiplying urine protein concentration by the 24-hour urine flow (mL/day).
(§5) Urine NAG activity (arbitrary units, AU/mL), as an estimation of urine NAG concentration, was measured by a commercial enzymatic test (Roche Diagnostics, Barcelona, Spain) following the manufacturer's instructions. Urine NAG activity was converted into daily NAG excretion (AU/day) by multiplying urine NAG activity by 24-hour urine flow (mL/day).
(§6) Protein extracts were obtained from 100 mg tissue homogenate powder, prepared by homogenizing the kidneys with a tissue mixer (Ultra-Turrax T8, IKA®-Werwe) at 4° C. in homogenization buffer (140 mM NaCl, 20 mM Tris-HCl pH=7.5, 0.5 Methylenediaminetetraacetic acid—EDTA-, 10% glycerol, 1% Igepal CA-630, 1 μg/mL aprotinin, 1 μg/mL leupeptin, 1 μg/mL pepstatin A, 1 mM phenylmethylsulphonyl fluoride—PMSF-). Tissue homogenates were centrifuged at 22,000 g during 15 minutes at 4° C. Supernatants were collected. Protein concentration was measured with a commercial kit (BioRad) based on the Lowry method. 50 μg total protein from tissue extracts or 20 μL cleared urine from each sample were separated by electrophoresis in 10-15% acrylamide gels (Mini Protean II system, BioRad). Immediately, proteins were electrically transferred to an Immobilon-P membrane (Millipore). After blocking the membrane to avoid unspecific binding, membranes were probed with antibodies against KIM-1 (R&D Systems), bone morphogenetic protein-7 (BMP-7, Santa Cruz Biotechnology), plasminogen activator inhibitor-1 (PAI-1, BD Biosciences), vimentin (Dako Denmark) and GM2 activator protein (GM2AP, see above).

[4] = test system: Wistar rats; test: Kidney histology (haematoxylin and eosin); format: in vivo
Method: Eventually, they were used for Western blot studies. […] The powder was also kept at −80° C. […] After it, tissue samples were processed for immunohistochemical studies.
Kidneys were kept in p-formaldehyde overnight at 4° C. Then, paraffin blocks were made and 5-μm tissue sections were cut and stained with hematoxilin and eosin. Photographs were taken under an Olympus BX51 microscope connected to an Olympus DP70 colour, digital camera.

[5] = test system: Wistar rats; test: Renal function characterization (plasma creatinine, BUN, urinary protein and NAG excretion) of gentamicin-treated rats; settings: for BUN concentration: vs control
Description: as §1, §2, §3, §4, §5

[6] = test system: PAI-1, KIM-1 and vimentin in renal tissue; test: Western blot of renal tissue homogenates for markers of tissue damage and repair
Description: as §1, §2, §6

[7] = test system: GM2 activator protein (GM2AP) in urine; test: Urinary GM2AP (Western blot) and renal function in humans treated with gentamicin; format: in vivo; settings: hospitalized patients under gentamicin regime for 2 or 3 days vs untreated controls
Description: Supernatants were collected.
As controls, the urine from age- and sex-matched individuals not receiving gentamicin was used.

[8] = G-150, after inception of treatment

Compound: N.N.[Cl][Pt][Cl] [cisplatin]
- urinary GM2AP (Western blot) ([1]; two doses of cisplatin 10 mg/kg on first and third days, urine 4 days after treatment inception): high levels

Compound: gentamicin
- body weight [2]: body weight loss
- death rate [2]: ~50%
- day by which BUN concentration was increased [3, 8]: 4 days
- day by which proteinuria was increased [3, 8]: 4 days
- day at which urinary level of GM2AP started to increase ([3]; G-150, urine, Western blot): 1 days
- day by which urinary level of KIM-1 was increased ([3]; G-150, urine, Western blot): 4 days
- day by which urinary level of PAI-1 was increased ([3]; G-150, urine, Western blot): 4 days
- time from beginning of administration at which GM2AP is detected by Western blot ([3]; gentamicin 150 mg/kg/day, urine): 24 h
- level of GM2AP in urine (Western blot) ([1]; G-50, 7 days, vs control): differential level
- GM2AP in urine (differential proteomics, 2D-electrophoresis) ([1]; G-50, 7 days, absent in control urine): highly expressed
- level of GM2AP in urine (Western blot) ([1]; G-150, 7 days, overt renal failure): increased
- renal histology ([4]; G-50, 7 days, vs control): no gross tissue alterations
- renal histology ([4]; G-150, 7 days): massive tubular necrosis
- nephrotoxic effect (pilot dose titration) ([5]; 6 daily doses of 50 mg/kg/day (G-50)): no signs of nephrotoxicity
- nephrotoxic effect (pilot dose titration) ([5]; 6 daily doses of 150 mg/kg/day (G-150)): marked renal failure
- BUN concentration ([5]; G-50, 7 days): not modified
- BUN concentration ([5]; G-150, 7 days): profoundly altered
- renal level of KIM-1 ([6]; G-50, 7 days, vs control): no increment
- renal level of PAI-1 ([6]; G-50, 7 days, vs control): no increment
- renal level of vimentin ([6]; G-50, 7 days, vs control): no increment
- renal level of KIM-1 ([6]; G-150, 7 days): clear increase
- renal level of PAI-1 ([6]; G-150, 7 days): clear increase
- renal level of vimentin ([6]; G-150, 7 days): clear increase
- urinary level of GM2AP (Western blot) [7]: clearly higher

Reference: patent publication US20120129721A1, “URINARY GM2 ACTIVATOR PROTEIN AS A MARKER OF ACUTE RENAL FAILURE OR THE RISK OF […] RENAL FAILURE” (priority 2009, published 2012)
